Structures can show the parent of a compound that is named as a salt.
Biological target: human STING (Homo sapiens, UniProt Q86WV6)
Experiment: Fluorescence Thermal Shift assay (hSTING FTS binding assay);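 note: STING preincubated with compound for 20 min in HEPES NaCl buffer pH 7.5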
Details: ΔTm, STING 0.1 mg/mL, SyproOrange, 25 to 99° C.
Protocol: Fluorescence Thermal Shift Assay Compounds of the present invention were tested for binding to human STING in Fluorescence Thermal Shift assay. […] Final STING concentration was 0.1 mg/mL. Thermal unfolding was performed in Real-Time PCR QuantStudio 6 Flex System (Applied Biosystems), from 25 to 99° C., with continuous ramp mode and ramp rate 0.033° C./s. The data were analyzed using Protein Thermal Shift Software (ThermoFisher).

human STING, sequence (Q86WV6 whole entry H232R): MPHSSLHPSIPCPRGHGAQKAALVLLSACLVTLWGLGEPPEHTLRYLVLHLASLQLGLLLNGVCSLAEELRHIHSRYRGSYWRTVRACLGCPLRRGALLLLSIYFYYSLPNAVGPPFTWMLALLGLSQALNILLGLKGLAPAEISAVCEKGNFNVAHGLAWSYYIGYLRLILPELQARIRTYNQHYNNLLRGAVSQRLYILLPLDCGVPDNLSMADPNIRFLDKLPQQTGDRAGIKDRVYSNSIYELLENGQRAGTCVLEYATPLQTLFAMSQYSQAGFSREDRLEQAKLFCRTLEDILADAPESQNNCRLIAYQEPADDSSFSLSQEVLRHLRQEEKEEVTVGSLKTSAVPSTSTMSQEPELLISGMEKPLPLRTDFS

Compound	hSTING FTS binding assay (ΔT ° C.)
Cc1cc(CN(Cc2cn(C)c3ccccc3c2=O)[C@H]2CCCN(c3cccc(N)c3)C2)ccn1.Cl [Example 1, 3-({[(3S)-1-(3-Aminophenyl)piperidin-3-yl][(2-methylpyridin-4-yl)methyl]amino}methyl)-1-methyl-1,4-dihydroquinolin-4-one Hydrochloride]	+ (ΔTm≤10° C.)
Cc1cc(CN(Cc2cn(C)c3ccccc3c2=O)[C@H]2CCCN(c3ccc(N)nc3)C2)ccn1 [Example 2, 3-({[(3S)-1-(6-Aminopyridin-3-yl)piperidin-3-yl][(2-methylpyridin-4-yl)methyl]amino}methyl)-1-methyl-1,4-dihydroquinolin-4-one]	+++ (ΔTm≥20° C.)
Cc1cc(CN(Cc2cn(C)c3ccccc3c2=O)[C@H]2CCCN(c3ccc(CN)nc3)C2)ccn1.Cl [Example 3, 3-({[(3S)-1-[6-(Aminomethyl)pyridin-3-yl]piperidin-3-yl][(2-methylpyridin-4-yl)methyl]amino}methyl)-1-methyl-1,4-dihydroquinolin-4-one Hydrochloride]	+ (ΔTm≤10° C.)
Cc1ccc(N2CCC[C@H](N(Cc3ccnc(N)c3)Cc3cn(C4CC4)c4cc(F)c(F)cc4c3=O)C2)cn1 [Example 5, 3-({[(2-Aminopyridin-4-yl)methyl][(3S)-1-(6-methylpyridin-3-yl)piperidin-3-yl]amino}methyl)-1-cyclopropyl-6,7-difluoro-1,4-dihydroquinolin-4-one Hydrochloride]	+++ (ΔTm≥20° C.)
Cc1ccc(N2CCC[C@H](N(Cc3ccnc(C)c3)Cc3cn(C)c4cc(N5CCC(N)CC5)ccc4c3=O)C2)cn1.Cl [Example 6, 7-(4-Aminopiperidin-1-yl)-1-methyl-3-({[(3S)-1-(6-methylpyridin-3-yl)piperidin-3-yl][(2-methylpyridin-4-yl)methyl]amino}methyl)-1,4-dihydroquinolin-4-one Hydrochloride]	++ (10<ΔTm<20° C.)
Cc1ccc(N2CCC[C@H](N(Cc3ccnc(C)c3)Cc3cn(C4CC4)c4cc(N)c(F)cc4c3=O)C2)cn1 [Example 7, 7-Amino-1-cyclopropyl-6-fluoro-3-({[(3S)-1-(6-methylpyridin-3-yl)piperidin-3-yl][(2-methylpyridin-4-yl)methyl]amino}methyl)-1,4-dihydroquinolin-4-one]	+++ (ΔTm≥20° C.)
Cc1ccc(N2CCC[C@H](N(Cc3ccnc(C)c3)Cc3cn(C4CC4)c4cc(NCCN)c(F)cc4c3=O)C2)cn1 [Example 8, 7-[(2-Aminoethyl)amino]-1-cyclopropyl-6-fluoro-3-({[(3S)-1-(6-methylpyridin-3-yl)piperidin-3-yl][(2-methylpyridin-4-yl)methyl]amino}methyl)-1,4-dihydroquinolin-4-one]	+++ (ΔTm≥20° C.)
Cc1ccc(N2CCC[C@H](N(Cc3ccnc(C)c3)Cc3cn(C4CC4)c4cc(NCCN(C)C)c(F)cc4c3=O)C2)cn1 [Example 9, 1-Cyclopropyl-7-{[2-(dimethylamino)ethyl]amino}-6-fluoro-3-({[(3S)-1-(6-methylpyridin-3-yl)piperidin-3-yl][(2-methylpyridin-4-yl)methyl]amino}methyl)-1,4-dihydroquinolin-4-one]	+++ (ΔTm≥20° C.)

More lines, now with the values ahead:

hSTING FTS binding assay (ΔT ° C.)	Compound
+++ (ΔTm≥20° C.)	Cc1ccc(N2CCC[C@H](N(Cc3ccnc(C)c3)Cc3cn(C4CC4)c4cc(N5CC[C@@H](N)C(F)(F)C5)c(F)cc4c3=O)C2)cn1.Cl (single isomer, unassigned) [Example 56]
+++ (ΔTm≥20° C.)	Cc1ccc(N2CCC[C@H](N(Cc3ccnc(C)c3)Cc3cn(C4CC4)c4cc(OCCN)c(F)cc4c3=O)C2)cn1 [Example 10, 7-(2-Aminoethoxy)-1-cyclopropyl-6-fluoro-3-({[(3S)-1-(6-methylpyridin-3-yl)piperidin-3-yl][(2-methylpyridin-4-yl)methyl]amino}methyl)-1,4-dihydroquinolin-4-one]
+++ (ΔTm≥20° C.)	CNCCOc1cc2c(cc1F)c(=O)c(CN(Cc1ccnc(C)c1)[C@H]1CCCN(c3ccc(C)nc3)C1)cn2C1CC1.Cl [Example 11, 1-Cyclopropyl-6-fluoro-7-[2-(methylamino)ethoxy]-3-({[(3S)-1-(6-methylpyridin-3-yl)piperidin-3-yl][(2-methylpyridin-4-yl)methyl]amino}methyl)-1,4-dihydroquinolin-4-one Hydrochloride]
+++ (ΔTm≥20° C.)	Cc1ccc(N2CCC[C@H](N(Cc3ccnc(C)c3)Cc3cn(C4CC4)c4cc(N5CC[C@@H](N)C5)c(F)cc4c3=O)C2)cn1.Cl [Example 12, 7-[(3R)-3-Aminopyrrolidin-1-yl]-1-cyclopropyl-6-fluoro-3-({[(3S)-1-(6-methylpyridin-3-yl)piperidin-3-yl][(2-methylpyridin-4-yl)methyl]amino}methyl)-1,4-dihydroquinolin-4-one Hydrochloride]
+++ (ΔTm≥20° C.)	Cc1ccc(N2CCC[C@H](N(Cc3ccnc(C)c3)Cc3cn(C4CC4)c4cc(N5CC[C@H](N)C5)c(F)cc4c3=O)C2)cn1.Cl [Example 13, 7-[(3S)-3-Aminopyrrolidin-1-yl]-1-cyclopropyl-6-fluoro-3-({[(3S)-1-(6-methylpyridin-3-yl)piperidin-3-yl][(2-methylpyridin-4-yl)methyl]amino}methyl)-1,4-dihydroquinolin-4-one Hydrochloride]
+++ (ΔTm≥20° C.)	Cc1ccc(N2CCC[C@H](N(Cc3ccnc(C)c3)Cc3cn(C4CC4)c4cc(N5CC[C@@H](O)C5)c(F)cc4c3=O)C2)cn1.Cl [Example 14, 1-Cyclopropyl-6-fluoro-7-[(3R)-3-hydroxypyrrolidin-1-yl]-3-({[(3S)-1-(6-methylpyridin-3-yl)piperidin-3-yl][(2-methylpyridin-4-yl)methyl]amino}methyl)-1,4-dihydroquinolin-4-one Hydrochloride]
+++ (ΔTm≥20° C.)	Cc1ccc(N2CCC[C@H](N(Cc3ccnc(C)c3)Cc3cn(C4CC4)c4cc(N5CC[C@H](CN)C5)c(F)cc4c3=O)C2)cn1.Cl [Example 15, 7-[(3R)-3-(Aminomethyl)pyrrolidin-1-yl]-1-cyclopropyl-6-fluoro-3-({[(3S)-1-(6-methylpyridin-3-yl)piperidin-3-yl][(2-methylpyridin-4-yl)methyl]amino}methyl)-1,4-dihydroquinolin-4-one Hydrochloride]
+++ (ΔTm≥20° C.)	Cc1ccc(N2CCC[C@H](N(Cc3ccnc(C)c3)Cc3cn(C4CC4)c4cc(N5CCC[C@H](N)C5)c(F)cc4c3=O)C2)cn1 [Example 16, 7-[(3S)-3-Aminopiperidin-1-yl]-1-cyclopropyl-6-fluoro-3-({[(3S)-1-(6-methylpyridin-3-yl)piperidin-3-yl][(2-methylpyridin-4-yl)methyl]amino}methyl)-1,4-dihydroquinolin-4-one]
+++ (ΔTm≥20° C.)	Cc1ccc(N2CCC[C@H](N(Cc3ccnc(C)c3)Cc3cn(C4CC4)c4cc(N5CCC[C@@H](N)C5)c(F)cc4c3=O)C2)cn1 [Example 17, 7-[(3R)-3-Aminopiperidin-1-yl]-1-cyclopropyl-6-fluoro-3-({[(3S)-1-(6-methylpyridin-3-yl)piperidin-3-yl][(2-methylpyridin-4-yl)methyl]amino}methyl)-1,4-dihydroquinolin-4-one]

— patent publication US12655124B2, “Heterocyclic compounds as modulators of stimulator of interferon genes (STING)” (RYVU THERAPEUTICS S.A., priority 2019, dated 2026)
